Where a name gives a salt, the structure may show the parent alone. Read-outs that look alike come from different tables or passages of the source.
What was measured:
ALDH1A2 [1] = target: T1, ALDH1A2 (Homo sapiens, UniProt O94788); assay: Cell-based enzyme assay, retinoic acid production in ALDH1A2/H1299 cells
T1 sequence (O94788 1-518): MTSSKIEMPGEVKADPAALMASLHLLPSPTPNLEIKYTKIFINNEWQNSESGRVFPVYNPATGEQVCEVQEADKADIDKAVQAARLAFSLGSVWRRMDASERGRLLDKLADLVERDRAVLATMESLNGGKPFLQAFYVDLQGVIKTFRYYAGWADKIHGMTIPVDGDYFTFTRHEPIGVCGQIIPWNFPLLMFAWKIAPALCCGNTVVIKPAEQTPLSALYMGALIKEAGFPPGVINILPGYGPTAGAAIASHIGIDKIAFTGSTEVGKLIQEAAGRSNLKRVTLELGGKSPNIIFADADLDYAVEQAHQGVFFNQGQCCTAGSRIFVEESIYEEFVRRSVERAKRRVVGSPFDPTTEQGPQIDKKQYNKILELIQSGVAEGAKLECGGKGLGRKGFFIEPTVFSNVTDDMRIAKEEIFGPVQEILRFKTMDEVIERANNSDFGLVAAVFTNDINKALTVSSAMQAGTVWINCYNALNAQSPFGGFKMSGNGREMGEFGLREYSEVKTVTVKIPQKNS
Outline: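 ALDH1A1- or ALDH1A2-stably transfected H1299 cells grown to confluence, then treated 20 h in serum-free RPMI-1640 with 2 μM all-trans-retinal plus varying inhibitor concentrations at 37 °C. Retinoic acid in cells and media quantified; inhibition from RA levels with vs without inhibitor.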

ALDH1A2 [2] = target: T1, ALDH1A2; assay: Inhibitor screening using purified enzymes: ALDH1A2 activity, retinoic acid production by HPLC (5 uM initial screen, then IC50); assay type: biochemical; parameters: histidine-tag (C); made in house; host or cells: bacterial expression (pET28 vector, IPTG induction); conditions: purified enzyme
Outline: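 Purified His-tagged human enzymes in 10 mM HEPES pH 8.0, 150 mM KCl, 2 mM EDTA with 2 mM NAD, all-trans-retinal substrate; retinoic acid quantified by HPLC. ALDH1A2 initial screen: 1 μg enzyme, 5 μM retinal, 5 μM inhibitor, 15 min, 37° C; IC50 runs: 0.5 μg enzyme, 0.5 μg retinal, 5 min, 37° C.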

| Molecule | EC50 (ALDH1A2 [1]; cell-based) | IC50 (ALDH1A2 [2]) | EC50 (ALDH1A2 [1]) |
| --- | --- | --- | --- |
| 3-(4-Acryloylphenyl)-1-phenyl-1H-pyrazole-4-carbaldehyde [Compound 309] | 0.87 µM | 0.005 µM | – |
| 3-{4-[(Chloroacetyl)amino]phenyl}-N-(3-fluorophenyl)-1-phenyl-1H-pyrazole-4-carboxamide [Compound 294] | < 0.005 µM | 0.025 µM | – |
| O=Cc1cn(-c2ccccc2)nc1-c1ccc(O)cc1 [Cmpd 34] | 0.798 µM | 1.73 µM | – |
| CS(=O)(=O)c1ccc(-c2nn(-c3ccccc3)cc2C(=O)Nc2cccc(F)c2)cc1 [Compound 178, 3-(4-(Methylsulfonyl)phenyl)-N-(3-fluorophenyl)-1-phenyl-1H-pyrazole-4-carboxamide] | 0.065 µM | 0.192 µM | – |
| CS(=O)(=O)c1ccc(-c2nn(-c3ccccc3)cc2C(=O)Nc2cccc(O)c2)cc1 [Compound 211, 3-(4-(Methylsulfonyl)phenyl)-N-(3-hydroxyphenyl)-1-phenyl-1H-pyrazole-4-carboxamide] | 0.12 µM | 0.081 µM | – |
| CS(=O)(=O)c1ccc(-c2nn(-c3ccccc3)cc2C(=O)Nc2cccc(Cl)c2)cc1 [Compound 219, 3-(4-(Methylsulfonyl)phenyl)-N-(3-chlorophenyl)-1-phenyl-1H-pyrazole-4-carboxamide] | 0.11 µM | 0.606 µM | – |
| CCS(=O)(=O)c1ccc(-c2nn(-c3ccccc3)cc2C(=O)Nc2cccc(F)c2)cc1 [Compound 223, 3-(4-(Ethylsulfonyl)phenyl)-N-(3-fluorophenyl)-1-phenyl-1H-pyrazole-4-carboxamide] | 0.088 µM | 0.208 µM | – |
| CS(=O)(=O)c1ccc(-c2nn(-c3ccccc3)cc2C(=O)Nc2cccc(F)c2O)cc1 [Compound 231, N-(3-Fluoro-2-hydroxyphenyl)-3-[4-(methylsulfonyl)phenyl]-1-phenyl-1H-pyrazole-4-carboxamide] | 0.069 µM | 0.323 µM | – |
| CS(=O)(=O)c1ccc(-c2nn(-c3ccc(Cl)cc3)cc2C(=O)Nc2ccccc2O)cc1 [Compound 233, N-(2-Hydroxyphenyl)-3-[4-(methylsulfonyl)phenyl]-1-(4-chloropheny)-1H-pyrazole-4-carboxamide] | 0.055 µM | 0.795 µM | – |
| CS(=O)(=O)c1ccc(-c2nn(-c3ccc(F)cc3)cc2C(=O)Nc2cccc(F)c2)cc1 [Compound 241, N-(3-Fluorophenyl)-3-[4-(methylsulfonyl)phenyl]-1-(4-fluorophenyl)-1H-pyrazole-4-carboxamide] | 0.056 µM | 0.092 µM | – |
| CS(=O)(=O)c1ccc(-c2nn(-c3ccc(OC(F)(F)F)cc3)cc2C(=O)Nc2cccc(F)c2)cc1 [Compound 258, N-(3-Fluorophenyl)-1-(4-trifluoromethoxypheny)-3-[4-(methylsulfonyl)phenyl]-1H-pyrazole-4-carboxamide] | 0.051 µM | 0.112 µM | – |
| CS(=O)(=O)c1ccc(-c2nn(-c3ccc(C#N)cc3)cc2C(=O)Nc2cccc(C(F)(F)F)c2)cc1 [Compound 262, 1-(4-Cyanophenyl)-N-(3-trifluoromethylphenyl)-3-[4-(methylsulfonyl)phenyl]-1H-pyrazole-4-carboxamide] | 0.016 µM | 0.352 µM | – |
| CS(=O)(=O)c1ccc(-c2nn(-c3cccc(F)c3)cc2C(=O)Nc2cccc(C(F)(F)F)c2)cc1 [Compound 266, 1-(3-Fluorophenyl)-N-(3-trifluoromethylphenyl)-3-[4-(methylsulfonyl)phenyl]-1H-pyrazole-4-carboxamide] | 0.354 µM | 0.029 µM | – |
| CS(=O)(=O)c1ccc(-c2nn(-c3cccc(C#N)c3)cc2C(=O)Nc2cccc(F)c2)cc1 [Compound 268, 1-(3-Cyanophenyl)-N-(3-fluorophenyl)-3-[4-(methylsulfonyl)phenyl]-1H-pyrazole-4-carboxamide] | 0.026 µM | 0.84 µM | – |
| CS(=O)(=O)c1ccc(-c2nn(-c3cccc(C#N)c3)cc2C(=O)Nc2ccc(F)c(F)c2)cc1 [Compound 269, 1-(3-Cyanophenyl)-N-(3,4-difluorophenyl)-3-[4-(methylsulfonyl)phenyl]-1H-pyrazole-4-carboxamide] | 0.045 µM | 0.238 µM | – |
| N#Cc1ccc(-n2cc(C(=O)Nc3cccc(F)c3)c(-c3ccc(NC(=O)C(Cl)Cl)cc3)n2)cc1 [Compound 316a, 3-(4-Dichloroacetamidophenyll)-N-(3-fluorophenyl)-1-(4-cyanophenyl)-1H-pyrazole-4-carboxamide] | 0.013 µM | 0.037 µM | – |

| Molecule | EC50 (ALDH1A2 [1]; cell-based) | IC50 (ALDH1A2 [2]) | EC50 (ALDH1A2 [1]) |
| --- | --- | --- | --- |
| CCc1ccc(C(=O)N2CCN(c3ccc([N+](=O)[O-])c(N4CCCC4)c3)CC2)s1 [Compound 323, {4-[4-Nitro-3-(pyrrolidin-1-yl)phenyl]piperazin-1-yl}(5-ethylthiophen-2-yl)methanone] | – | 0.103 µM | 0.457 µM |
| CCOc1ccsc1C(=O)N1CCN(c2ccc([N+](=O)[O-])c(N3CCCC3)c2)CC1 [Compound 326, {4-[4-Nitro-3-(pyrrolidin-1-yl)phenyl]piperazin-1-yl}(3-ethoxythiophen-2-yl)methanone] | – | 0.058 µM | 0.11 µM |
| Cc1cc(C(=O)N2CCN(c3ccc([N+](=O)[O-])c(N4CCCC4)c3)CC2)sc1C [Compound 327, {4-[4-Nitro-3-(pyrrolidin-1-yl)phenyl]piperazin-1-yl}(4,5-dimethylthiophen-2-yl)methanone] | – | 0.313 µM | 0.862 µM |
| COc1ccsc1C(=O)N1CCN(c2ccc([N+](=O)[O-])c(N3CCCC3)c2)CC1 [Compound 329, {4-[4-Nitro-3-(pyrrolidin-1-yl)phenyl]piperazin-1-yl}(3-methoxythiophen-2-yl)methanone] | – | 0.079 µM | < 0.5 µM |
| Nc1ccsc1C(=O)N1CCN(c2ccc([N+](=O)[O-])c(N3CCCC3)c2)CC1 [Compound 331, {4-[4-Nitro-3-(pyrrolidin-1-yl)phenyl]piperazin-1-yl}(3-aminothiophen-2-yl)methanone hydrochloride] | – | 0.062 µM | 0.121 µM |
| CC(=O)Nc1ccsc1C(=O)N1CCN(c2ccc([N+](=O)[O-])c(N3CCCC3)c2)CC1 [Compound 332] | – | 0.388 µM | 0.437 µM |
| O=C(c1ccc(F)s1)N1CCN(c2ccc([N+](=O)[O-])c(N3CCCC3)c2)CC1 [Compound 334, {4-[4-Nitro-3-(pyrrolidin-1-yl)phenyl]piperazin-1-yl}(5-fluorothiophen-2-yl)methanone] | – | 1.33 µM | 0.377 µM |
| O=C(c1ccccc1)N1CCN(c2ccc([N+](=O)[O-])c(N3CCCC3)c2)CC1 [Compound 339, Phenyl-1-{4-[4-nitro-3-(pyrrolidin-1-yl)phenyl]piperazin-1-yl}methanone] | – | 0.837 µM | 0.293 µM |
| O=C(c1cccc(Cl)c1)N1CCN(c2ccc([N+](=O)[O-])c(N3CCCC3)c2)CC1 [Compound 341, 3-Chlorophenyl-1-{4-[4-nitro-3-(pyrrolidin-1-yl)phenyl]piperazin-1-yl}methanone] | – | 1.45 µM | 0.505 µM |
| O=C(c1ccc(Cl)cc1)N1CCN(c2ccc([N+](=O)[O-])c(N3CCCC3)c2)CC1 [Compound 342, 4-Chlorophenyl-1-{4-[4-nitro-3-(pyrrolidin-1-yl)phenyl]piperazin-1-yl}methanone] | – | 4.56 µM | 0.966 µM |
| Cn1cccc1C(=O)N1CCN(c2ccc([N+](=O)[O-])c(N3CCCC3)c2)CC1 [Compound 343, [4-(4-Nitro-3-(pyrrolidin-1-yl)phenyl)piperazin-1-yl](1-methyl-1H-pyrrol-2-yl)methanone] | – | 1.94 µM | < 0.5 µM |
| O=C(c1ccc[nH]1)N1CCN(c2ccc([N+](=O)[O-])c(N3CCCC3)c2)CC1 [Compound 344, {4-[4-Nitro-3-(pyrrolidin-1-yl)phenyl]piperazin-1-yl}(1H-pyrrol-2-yl)methanone] | – | 0.264 µM | < 0.5 µM |
| COc1ccc(C(=O)N2CCN(c3ccc([N+](=O)[O-])c(N4CCCC4)c3)CC2)cc1 [Compound 345, 4-Methoxyphenyl-1-{4-[4-nitro-3-(pyrrolidin-1-yl)phenyl]piperazin-1-yl}methanone] | – | 3.99 µM | 1.19 µM |
| CN(C)c1ccc(C(=O)N2CCN(c3ccc([N+](=O)[O-])c(N4CCCC4)c3)CC2)cc1 [Compound 346, 4-Dimethylaminophenyl-1-{4-[4-nitro-3-(pyrrolidin-1-yl)phenyl]piperazin-1-yl}methanone] | – | 5.69 µM | 1.42 µM |
| CC(=O)n1cccc1C(=O)N1CCN(c2ccc([N+](=O)[O-])c(N3CCCC3)c2)CC1 [Compound 347, {4-[4-Nitro-3-(pyrrolidin-1-yl)phenyl]piperazin-1-yl}(1-acetyl-pyrrol-2yl)methanone] | – | 0.042 µM | 0.35 µM |

— patent US11548875B2, “Inhibitor compounds for male contraception” (University of Washington, priority 2018, dated 2023)
